The record followed here is PubChem BioAssay AID449750 (Broad Institute, 2010).

“And” between values parts separate entries of the source, which are not always exact repeats. Equal entries are not always repeated. The source made the active and inactive calls. How the calls were made is not given here. Where only a bound is given, the exact number is not on record here.

The experiment is described as follows: non-covalent RecA intein splicing inhibitors, dose response, biochemical, cell-free, fluorescence, secondary screen (AID 449750).

A word on the AC50: it is the concentration giving half of the maximal activity seen. As for `COc1cc(OC)cc(-c2nnc(Sc3ccc(C=O)cc3[N+](=O)[O-])o2)c1`, the AC50 was 21.3 µM.
For `Cc1nc2ccccc2nc1N/N=C/c1ccc(O)cc1O` the value was > 38 µM (inactive).
Consider `O=c1[nH]c2ccc(Cl)cc2c(-c2ccccc2)c1SC(=S)N1CCCCC1`, for which the AC50 is > 38 µM (inactive).
Take `Cc1cc(Br)c2c(c1)/C(=C/C(=O)c1cccs1)C(=O)N2`: the AC50 is > 38 µM (inactive).
The value for `Cc1cccc(NC2=C(NC(=O)c3ccccc3)C(=O)c3ccccc3C2=O)c1` was 9.5 µM.
For `N#CC(c1ccccc1)c1cnccn1` (stereo not drawn) the value was > 38 µM (inactive); for `O=C(/C=C/c1ccccc1)c1ccc2c3c(cccc13)CC2`, 3.7 µM.
For `O=c1cc(-c2ccc(Cl)cc2)[nH][nH]1` the value was 14.2 µM; for `CCN(CC)CCN1C(=O)c2cccc3cc(N)cc(c23)C1=O`, 1.69 µM.
`CCCc1[nH]nc2c1C(c1ccoc1)C(C#N)=C(N)O2` (stereo not drawn): the AC50 was > 38 µM (inactive).
As for `NNc1n[nH]c(=S)n1N`, the AC50 was 32.3 µM.
In the case of `CC(C)c1[nH]nc2c1C1(CCN(Cc3ccccc3)CC1)C(C#N)=C(N)O2`, the AC50 was > 38 µM (inactive).
For the compound `CCOC(=O)/C(C#N)=C1/SC(C)C(=O)N1c1ccc(Br)cc1` (stereo not drawn), the AC50 is > 38 µM (inactive).
For `Cc1ccc2c(c1)c1nnc(SCC(=O)Nc3ccc(N(C)C)cc3)nc1n2CC(=O)O` the value was > 38 µM (inactive).
For `O=C(O)c1ccccc1-c1ccccc1C(=O)Nc1ccc(-c2nc3cc(Cl)ccc3o2)cc1` the value was 9.29 µM; for `CSc1nc(=S)n(-c2ccc([N+](=O)[O-])cc2)c(C)c1C(C)=O`, > 38 µM (inactive); for `Cc1ccc(Sc2ccc(NC(=O)CCl)cc2)c(C)c1`, 1.18 µM.
For `COc1cccc(CN2CCN(Cc3ccc(C#CC(C)(C)O)s3)CC2CCO)c1` (stereo not drawn) the value was > 38 µM (inactive); for `CCCc1[nH]nc2c1C(c1ccc(OCCN3CCOCC3)c(OC)c1)C(C#N)=C(N)O2` (stereo not drawn), > 38 µM (inactive).
Consider `COc1ccc(C(=O)NC(=S)NNC(=O)CCc2ccccc2)cc1`, for which the AC50 is > 38 µM (inactive).
For `COC(=O)Cc1[nH]nc2c1C(c1c[nH]c3ccccc13)C(C#N)=C(N)O2` (stereo not drawn) the value was > 38 µM (inactive); for `COC(=O)c1ccc(NC(=O)c2nc(S(=O)(=O)Cc3cccc(C)c3)ncc2Cl)cc1`, 17.1 µM.
With `N#Cc1c(N2CCCC2)nc(N)c2c(N)nc(N3CCCC3)cc12`, the AC50 was 0.774 µM.
Take `O=C(OCn1ncc(Cl)c(Cl)c1=O)c1cccc(C(F)(F)F)c1`: the AC50 was 12.9 µM.
The value for `Cc1ccc(CS(=O)(=O)c2ncc(Cl)c(C(=O)Nc3nnc(C)s3)n2)cc1` was > 38 µM (inactive); that for `CCc1ccc(/C=C/C(=O)C2C(=O)c3ccccc3C2=O)cc1` was 7.06 µM; that for `Cc1ccc(S(=O)(=O)NC(=O)Nc2ccc(N(C)C)cc2)cc1` was 31 µM.
`O=C(c1cc(F)c(F)cc1Cl)N1CCN(c2ccc([N+](=O)[O-])c3ncccc23)CC1`: the AC50 is > 38 µM (inactive).
With `CCSc1nnc(NC(=O)c2nc(S(=O)(=O)Cc3ccc(F)cc3)ncc2Cl)s1`, the AC50 is > 38 µM (inactive).
For `Cc1ccc(SCc2[nH]nc3c2C(c2ccco2)C(C#N)=C(N)O3)cc1` (stereo not drawn) the value was 14.8 µM; for `O=C(c1ccc(N2CCN(CCO)CC2)nc1)N1CCOCC1`, > 38 µM (inactive); for `Cc1c(OCC(=O)Nc2cccnc2)ccc2c3c(c(=O)oc12)CCC3`, > 38 µM (inactive).
The value for `Cn1c(SCC(=O)NCC2CCCO2)ncc(C(=O)Nc2ccccc2)c1=O` (stereo not drawn) was > 38 µM (inactive).
Take `CCCc1[nH]nc2c1C(c1ccncc1)C(C#N)=C(N)O2` (stereo not drawn): the AC50 was > 38 µM (inactive).
Regarding `CSc1ccc(C(c2c(C)[nH][nH]c2=O)c2c(C)[nH][nH]c2=O)cc1`, the AC50 is 7.2 µM.
The value for `CC1=NN(c2cccc(Cl)c2)C(=O)C1` was 34.3 µM; that for `COC(=O)c1c(NC(=O)/C=C/C(=O)O)sc(C)c1-c1ccc(C)c(C)c1` was 26.5 µM; that for `CCn1c(O)c(N=Nc2cccc(S(=O)(=O)N3CCOCC3)c2)c(=O)n(CC)c1=S` was > 38 µM (inactive).
Turning to `CCOC(=O)/C(C#N)=C\c1ccc(O)c(OC)c1`, the AC50 is > 38 µM (inactive).
Consider `Cn1cnc([N+](=O)[O-])c1Oc1cccc2ccccc12`, for which the AC50 is > 38 µM (inactive).
For `CN(C(=O)c1ccc(S(=O)(=O)c2cccc(Cl)c2)c([N+](=O)[O-])c1)C1CCCCC1` the value was 13.7 µM.
Turning to `COc1ccc(O)c(C(c2c(C)[nH][nH]c2=O)c2c(C)[nH][nH]c2=O)c1`, the AC50 was 8.26 µM.
The value for `COc1ccc(-c2[nH]nc3c2C(c2ccccc2OC(=O)N2CCOCC2)C(C#N)=C(N)O3)cc1` (stereo not drawn) was 38.2 µM; that for `COc1cc(Br)c(C(=O)c2nccc3cc(OC)c(OC)cc23)cc1OC` was 6.24 µM.
For `CCc1ccc(NC(=O)CSc2ccc(-c3sc(C)nc3C)nn2)cc1` the value was > 38 µM (inactive); for `CC(=O)Oc1c(/C=C(\C#N)C(N)=O)[nH]c2ccccc12`, > 38 µM (inactive).
For `Cc1cccc(C)c1NC(=O)c1nc(S(=O)(=O)Cc2ccccc2)ncc1Cl` the value was > 38 µM (inactive).
For `CCCCCn1c(NC(=O)c2ccco2)c(S(=O)(=O)c2ccc(C)cc2)c2nc3ccccc3nc21`, the AC50 is > 38 µM (inactive).
For `Nc1nc(CCl)nc(Nc2ccc3ccccc3c2)n1` the value was 15.7 µM.
In the case of `CC(=O)Nc1ccc(OC(=O)c2ccco2)cc1`, the AC50 was > 38 µM (inactive).
The value for `CC(=O)Nc1ccc(NC(=O)c2nc(S(=O)(=O)Cc3ccccc3)ncc2Cl)cc1` was > 38 µM (inactive); that for `CCC(CC)C(=O)NCc1ccc2c(c1)cc(C)n2C` was > 38 µM (inactive); that for `Cc1c(/C=N/Nc2nc3ccccc3[nH]2)c2ccccc2n1C` was 28.1 µM.
`O=C1C(Cl)=C(NCc2cccnc2)C(=O)c2ccccc21`: the AC50 was 13.6 µM.
For `O=c1cc(C23CC4CC(CC(C4)C2)C3)[nH][nH]1` the value was > 38 µM (inactive); for `CC1(C)CC(C(CCN(Cc2ccccc2)C(=O)c2ccco2)c2ccc(F)cc2)CCO1` (stereo not drawn), 5.14 µM; for `CN(CCO)c1cc(Sc2nc3ccccc3s2)c2nonc2c1[N+](=O)[O-]`, 7.53 µM.
As to `C[C@@H]1CC=C[C@H]2[C@H]1C(=O)N(Cc1ccccc1)[C@H]2c1ccc(F)c(Br)c1`, the AC50 is 17.9 µM.
The value for `COc1ccc(NC(=S)Nc2ccc3nsnc3c2)cc1` was 25.2 µM; that for `Cc1c(N=C2C=CC(=O)c3ccccc32)c(=O)n(-c2ccccc2)n1C` was 3.51 µM; that for `O=C(CNC(=O)C1COc2ccccc2O1)N/N=C\c1ccccc1Cl` (stereo not drawn) was > 38 µM (inactive).
Regarding `Cc1ccc(SCc2[nH]nc3c2C2(CCSCC2)C(C#N)=C(N)O3)cc1`, the AC50 was 30.4 µM.
For `CCc1cc(C(=O)c2ccc(C)cc2)c(NC(=O)CCl)s1` the value was 2.62 µM; for `COc1ccccc1NC(=O)CSc1nc2c(sc3ccccc32)c(=O)n1CCN(C)C`, > 38 µM (inactive).
`CC(C)C(=O)N1CCN(c2nc(-c3ccccc3)c3c(c2C#N)CCCC3)CC1`: the AC50 was 9.83 µM.
Turning to `Cc1ccc(-n2[nH]c(C)c(/C=N/NC(=O)c3ccc([N+](=O)[O-])cc3)c2=O)c(C)c1`, the AC50 was 5.27 µM.
The value for `CCc1[nH]nc2c1C(c1cccnc1)C(C#N)=C(N)O2` (stereo not drawn) was > 38 µM (inactive).
For `CCOC(=O)CSc1nnc(NCC(=O)OC)c(=O)[nH]1` the value was > 38 µM (inactive).
With `Cc1ccc(-n2nc(C)c3c2OC(N)=C(C#N)C3c2ccoc2)cc1` (stereo not drawn), the AC50 was 6.18 µM.
For the compound `Cc1ccc(C2C(C#N)=C(N)Oc3n[nH]c(-c4ccccc4)c32)o1` (stereo not drawn), the AC50 was > 38 µM (inactive).
On to `Cc1onc(-c2ccccc2)c1-c1nc2ccccc2c(=O)o1`, for which the AC50 is > 38 µM (inactive).
For `Cn1c(SCC(=O)NCC2CCCO2)ncc(C(=O)Nc2ccc(F)cc2)c1=O` (stereo not drawn) the value was 7.58 µM.
The value for `CCCc1[nH]nc2c1C(CCC)C(C#N)=C(N)O2` (stereo not drawn) was > 38 µM (inactive).
For `O=C(CCl)N1CCN(S(=O)(=O)c2ccc3ccccc3c2)CC1` the value was 6.51 µM.
Take `[O-]C1=N/[N+](=C/c2ccc(Cl)c(Cl)c2)CC1`: the AC50 is > 38 µM (inactive).
In the case of `O=C(CCl)N1N=C(c2cccs2)CC1c1ccco1` (stereo not drawn), the AC50 is 5.44 µM.
With `Oc1cc(O)c2c(c1)O[C@H](c1ccc(O)c(O)c1)[C@@H](O)C2`, the AC50 is > 38 µM (inactive).
The value for `CC1=NN(c2ccc(C(=O)O)cc2)C(=O)/C1=C\c1ccc(OC(=O)c2cccs2)cc1` was 2.25 µM.
The value for `CC(C)(C)Nc1nc(Cl)nc(N(C#N)CN2C(=O)c3ccccc3S2(=O)=O)n1` was > 38 µM (inactive); that for `CCCCCCCCCCOC(=O)Cn1c(COc2ccc(OC)cc2)[n+](C)c2ccccc21` was 8.31 µM and 8.42 µM.
For `COc1cc(C(=O)c2nccc3cc(OC)c(OC)cc23)c([N+](=O)[O-])cc1OC` the value was 18.3 µM; for `O=C(O)CN1C(=O)/C(=C\c2cccc(OCc3ccc(Cl)cc3Cl)c2)SC1=S`, 6.45 µM; for `O=C1c2ccccc2-c2onc3ccc(N4CCCC4)c1c23`, > 38 µM (inactive).
For `Cc1[nH]nc2c1C(c1cn[nH]c1-c1ccc(F)cc1)C(C#N)=C(N)O2` (stereo not drawn), the AC50 was > 38 µM (inactive).
For `CC(C)c1[nH]nc2c1C(Cc1ccccc1)C(C#N)=C(N)O2` (stereo not drawn) the value was > 38 µM (inactive); for `Cc1noc2ncnc(Sc3ccccc3Cl)c12`, > 38 µM (inactive).
For `O=[N+]([O-])c1cccc2c([As](=O)(O)O)cccc12`, the AC50 was > 38 µM (inactive).
The value for `O=C(c1ccc2nc(Cc3cccc(Cl)c3)oc2c1)N1CCC(O)CC1` was > 38 µM (inactive); that for `CC1=NNC(=O)C1C(c1ccccc1)C(C#N)C#N` (stereo not drawn) was > 38 µM (inactive); that for `CCn1c(Cl)c(C=O)s/c1=N\S(=O)(=O)c1ccccc1` was 2.44 µM.
`COc1ccc2noc3c2c1C(=O)c1ccccc1-3`: the AC50 was 24.8 µM.
On to `COc1ccc(C(=O)/C=C/Sc2nc3ccccc3o2)cc1`, for which the AC50 was 38.6 µM.
`O=S(=O)(Nc1ccc(-n2cnnn2)cc1)c1ccc(F)c(F)c1F`: the AC50 was > 38 µM (inactive).
